Measured values as given in PubChem BioAssay AID1259407 (Chemical Carcinogenesis Research Information System (CCRIS), 2018).
Activity calls are given as the source filed them. The rule behind the calls is not given here.

Test system: CCRIS mutagenicity, Ames/micronucleus/aberration tests
Test: CCRIS mutagenicity studies
[1] = Test System: AMES SALMONELLA TYPHIMURIUM, Strain/Indicator: TA98, Metabolic Activation: NONE, Method: STANDARD PLATE
[2] = Test System: AMES SALMONELLA TYPHIMURIUM, Strain/Indicator: TA100, Metabolic Activation: NONE, Method: STANDARD PLATE
[3] = Test System: AMES SALMONELLA TYPHIMURIUM, Strain/Indicator: TA1535, Metabolic Activation: NONE, Method: STANDARD PLATE

Which results are given for `CN(C)N=Nc1ccc([N+](=O)[O-])cc1`?
mutagenic call (Test System: AMES SALMONELLA TYPHIMURIUM, Strain/Indicator: TA92, Metabolic Activation: MOUSE, LIVER, S-9, POLYCHLORINATED BIPHENYLS, Method: PREINCUBATION): active; positive; mutagenic call (Test System: AMES SALMONELLA TYPHIMURIUM, Strain/Indicator: TA92, Metabolic Activation: MOUSE, LIVER, S-9, POLYCHLORINATED BIPHENYLS, Method: STANDARD PLATE): active; positive; mutagenic call (Test System: AMES SALMONELLA TYPHIMURIUM, Strain/Indicator: TA92, Metabolic Activation: NONE, Method: STANDARD PLATE): active; positive; mutagenic call (Test System: AMES SALMONELLA TYPHIMURIUM, Strain/Indicator: TA97, Metabolic Activation: MOUSE, LIVER, S-9, POLYCHLORINATED BIPHENYLS, Method: PREINCUBATION): active; positive; mutagenic call (Test System: AMES SALMONELLA TYPHIMURIUM, Strain/Indicator: TA97, Metabolic Activation: MOUSE, LIVER, S-9, POLYCHLORINATED BIPHENYLS, Method: STANDARD PLATE): active; positive; mutagenic call (Test System: AMES SALMONELLA TYPHIMURIUM, Strain/Indicator: TA97, Metabolic Activation: NONE, Method: STANDARD PLATE): active; positive; mutagenic call (Test System: AMES SALMONELLA TYPHIMURIUM, Strain/Indicator: TA98, Metabolic Activation: MOUSE, LIVER, S-9, POLYCHLORINATED BIPHENYLS, Method: PREINCUBATION): active; positive; mutagenic call (Test System: AMES SALMONELLA TYPHIMURIUM, Strain/Indicator: TA98, Metabolic Activation: MOUSE, LIVER, S-9, POLYCHLORINATED BIPHENYLS, Method: STANDARD PLATE): active; positive; mutagenic call [1]: active; positive; mutagenic call (Test System: AMES SALMONELLA TYPHIMURIUM, Strain/Indicator: TA100, Metabolic Activation: MOUSE, LIVER, S-9, POLYCHLORINATED BIPHENYLS, Method: PREINCUBATION): active; positive; mutagenic call (Test System: AMES SALMONELLA TYPHIMURIUM, Strain/Indicator: TA100, Metabolic Activation: MOUSE, LIVER, S-9, POLYCHLORINATED BIPHENYLS, Method: STANDARD PLATE): active; positive; mutagenic call [2]: active; positive; mutagenic call (Test System: AMES SALMONELLA TYPHIMURIUM, Strain/Indicator: TA1535, Metabolic Activation: MOUSE, LIVER, S-9, POLYCHLORINATED BIPHENYLS, Method: PREINCUBATION): active; positive; mutagenic call (Test System: AMES SALMONELLA TYPHIMURIUM, Strain/Indicator: TA1535, Metabolic Activation: MOUSE, LIVER, S-9, POLYCHLORINATED BIPHENYLS, Method: STANDARD PLATE): active; positive; mutagenic call [3]: active; positive; mutagenic call (Test System: AMES SALMONELLA TYPHIMURIUM, Strain/Indicator: TA1537, Metabolic Activation: MOUSE, LIVER, S-9, POLYCHLORINATED BIPHENYLS, Method: PREINCUBATION): active; positive; mutagenic call (Test System: AMES SALMONELLA TYPHIMURIUM, Strain/Indicator: TA1537, Metabolic Activation: MOUSE, LIVER, S-9, POLYCHLORINATED BIPHENYLS, Method: STANDARD PLATE): active; positive; mutagenic call (Test System: AMES SALMONELLA TYPHIMURIUM, Strain/Indicator: TA1537, Metabolic Activation: NONE, Method: STANDARD PLATE): active; positive; mutagenic call (Test System: AMES SALMONELLA TYPHIMURIUM, Strain/Indicator: TA1538, Metabolic Activation: MOUSE, LIVER, S-9, POLYCHLORINATED BIPHENYLS, Method: PREINCUBATION): active; positive; mutagenic call (Test System: AMES SALMONELLA TYPHIMURIUM, Strain/Indicator: TA1538, Metabolic Activation: MOUSE, LIVER, S-9, POLYCHLORINATED BIPHENYLS, Method: STANDARD PLATE): active; positive; mutagenic call (Test System: AMES SALMONELLA TYPHIMURIUM, Strain/Indicator: TA1538, Metabolic Activation: NONE, Method: STANDARD PLATE): active; positive

`COP(=O)(NC(C)=O)SC` (configuration not stated) was tested. Which mutagenic call [1] did it give?
The mutagenic call was “inactive; negative”.

What about the mutagenic call [2] of the same compound?
The mutagenic call was “inactive; negative”.

What about the mutagenic call [3] of the same compound?
Its mutagenic call is “inactive; negative”.

What about the mutagenic call (Test System: Mouse Lymphoma, Strain/Indicator: L5178Y (TK+/TK-), Metabolic Activation: None, Method: Suspension/Plate) of the same compound?
Its mutagenic call is “active; positive; dose-dependent increase”.

And the mutagenic call (Test System: Mouse Lymphoma, Strain/Indicator: L5178Y (TK+/TK-), Metabolic Activation: Rat, liver S-9, Method: Suspension/Plate)?
The mutagenic call was “active; positive; dose-dependent increase”.

For `CCCCCN(N=O)C(N)=O`, which mutagenic call (Test System: E. COLI B, Strain/Indicator: H/R30R, Metabolic Activation: NONE) is on record?
Its mutagenic call is “active; positive”.

And the mutagenic call (Test System: E. COLI B, Strain/Indicator: HS30R, Metabolic Activation: NONE)?
The mutagenic call was “active; positive”.

Which results are given for `Cc1ccc(CO)cc1`?
mutagenic call (Test System: AMES SALMONELLA TYPHIMURIUM, Strain/Indicator: TA97, Metabolic Activation: HAMSTER, LIVER, S-9, AROCLOR 1254 (10%), Method: PREINCUBATION): inactive; negative; mutagenic call (Test System: AMES SALMONELLA TYPHIMURIUM, Strain/Indicator: TA97, Metabolic Activation: HAMSTER, LIVER, S-9, AROCLOR 1254 (30%), Method: PREINCUBATION): inactive; negative; mutagenic call (Test System: AMES SALMONELLA TYPHIMURIUM, Strain/Indicator: TA97, Metabolic Activation: NONE, Method: PREINCUBATION): inactive; negative; mutagenic call (Test System: AMES SALMONELLA TYPHIMURIUM, Strain/Indicator: TA97, Metabolic Activation: RAT, LIVER, S-9, AROCLOR 1254 (10%), Method: PREINCUBATION): inactive; negative; mutagenic call (Test System: AMES SALMONELLA TYPHIMURIUM, Strain/Indicator: TA97, Metabolic Activation: RAT, LIVER, S-9, AROCLOR 1254 (30%), Method: PREINCUBATION): inactive; negative; mutagenic call (Test System: AMES SALMONELLA TYPHIMURIUM, Strain/Indicator: TA98, Metabolic Activation: HAMSTER, LIVER, S-9, AROCLOR 1254 (10%), Method: PREINCUBATION): inactive; negative; mutagenic call (Test System: AMES SALMONELLA TYPHIMURIUM, Strain/Indicator: TA98, Metabolic Activation: HAMSTER, LIVER, S-9, AROCLOR 1254 (30%), Method: PREINCUBATION): inactive; negative; mutagenic call (Test System: AMES SALMONELLA TYPHIMURIUM, Strain/Indicator: TA98, Metabolic Activation: NONE, Method: PREINCUBATION): inactive; negative; mutagenic call (Test System: AMES SALMONELLA TYPHIMURIUM, Strain/Indicator: TA98, Metabolic Activation: RAT, LIVER, S-9, AROCLOR 1254 (10%), Method: PREINCUBATION): inactive; negative; mutagenic call (Test System: AMES SALMONELLA TYPHIMURIUM, Strain/Indicator: TA98, Metabolic Activation: RAT, LIVER, S-9, AROCLOR 1254 (30%), Method: PREINCUBATION): inactive; negative; mutagenic call (Test System: AMES SALMONELLA TYPHIMURIUM, Strain/Indicator: TA100, Metabolic Activation: HAMSTER, LIVER, S-9, AROCLOR 1254 (10%), Method: PREINCUBATION): inactive; negative; mutagenic call (Test System: AMES SALMONELLA TYPHIMURIUM, Strain/Indicator: TA100, Metabolic Activation: HAMSTER, LIVER, S-9, AROCLOR 1254 (30%), Method: PREINCUBATION): inactive; negative; mutagenic call (Test System: AMES SALMONELLA TYPHIMURIUM, Strain/Indicator: TA100, Metabolic Activation: NONE, Method: PREINCUBATION): inactive; negative; mutagenic call [2]: inactive; negative; mutagenic call (Test System: AMES SALMONELLA TYPHIMURIUM, Strain/Indicator: TA100, Metabolic Activation: RAT, LIVER, S-9, AROCLOR 1254 (10%), Method: PREINCUBATION): inactive; negative; mutagenic call (Test System: AMES SALMONELLA TYPHIMURIUM, Strain/Indicator: TA100, Metabolic Activation: RAT, LIVER, S-9, AROCLOR 1254 (30%), Method: PREINCUBATION): inactive; negative; mutagenic call (Test System: AMES SALMONELLA TYPHIMURIUM, Strain/Indicator: TA1535, Metabolic Activation: HAMSTER, LIVER, S-9, AROCLOR 1254 (10%), Method: PREINCUBATION): inactive; negative; mutagenic call (Test System: AMES SALMONELLA TYPHIMURIUM, Strain/Indicator: TA1535, Metabolic Activation: HAMSTER, LIVER, S-9, AROCLOR 1254 (30%), Method: PREINCUBATION): inactive; negative; mutagenic call (Test System: AMES SALMONELLA TYPHIMURIUM, Strain/Indicator: TA1535, Metabolic Activation: NONE, Method: PREINCUBATION): inactive; negative; mutagenic call (Test System: AMES SALMONELLA TYPHIMURIUM, Strain/Indicator: TA1535, Metabolic Activation: RAT, LIVER, S-9, AROCLOR 1254 (10%), Method: PREINCUBATION): inactive; negative; mutagenic call (Test System: AMES SALMONELLA TYPHIMURIUM, Strain/Indicator: TA1535, Metabolic Activation: RAT, LIVER, S-9, AROCLOR 1254 (30%), Method: PREINCUBATION): inactive; negative; mutagenic call (Test System: AMES SALMONELLA TYPHIMURIUM, Strain/Indicator: TA1537, Metabolic Activation: HAMSTER, LIVER, S-9, AROCLOR 1254 (30%), Method: PREINCUBATION): inactive; negative; mutagenic call (Test System: AMES SALMONELLA TYPHIMURIUM, Strain/Indicator: TA1537, Metabolic Activation: NONE, Method: PREINCUBATION): inactive; negative; mutagenic call (Test System: AMES SALMONELLA TYPHIMURIUM, Strain/Indicator: TA1537, Metabolic Activation: RAT, LIVER, S-9, AROCLOR 1254 (30%), Method: PREINCUBATION): inactive; negative
